Assay results from patent publication EP3928779A1 (Chugai Seiyaku Kabushiki Kaisha, priority 2014, dated 2016).

Tested on: rat small-intestinal brush border membrane vesicles
Assay: Inhibitory effect on 33PO4 uptake into rat small-intestinal brush border membrane vesicles (rapid filtration method)
Format: biochemical
Conditions: 33PO4 uptake into rat small-intestinal BBMVs; test compound 1 µM; reacted for 60 seconds
Procedure, shortened: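 Uptake of ^33PO4 was measured by rapid filtration and liquid scintillation counting of filter-retained vesicles, after quenching with ice-cold 110 mM NaCl/1 mM KH2PO4/10 mM HEPES pH 7.5. Vesicles were brush border membranes from the upper small intestine of female Wistar rats aged 4–5 weeks.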

Structure (SMILES)	Rate of uptake inhibition (%) (1 µM)
CN(CCOc1ccc(CN2C(=O)C(C(=O)Nc3ccc(C(F)(F)F)cc3-c3cc(C(F)(F)F)ncn3)=C(O)C3(CCC3)N2C)c(F)c1F)C1CCOC1 (stereo not shown) [Example 338, 6-[[2,3-Difluoro-4-[2-[methyl(oxolan-3-yl)amino]ethoxy]phenyl]methyl]-9-hydroxy-5-methyl-7-oxo-N-[4-(trifluoromethyl)-2-[6-(trifluoromethyl)pyrimidin-4-yl]phenyl]-5,6-diazaspiro[3.5]non-8-ene-8-carboxamide]	66
CN1N(Cc2ccc(OCCN3[C@@H]4COC[C@H]3C4)c(F)c2F)C(=O)C(C(=O)Nc2ccc(C(F)(F)F)cc2-c2cc(C(F)(F)F)ncn2)=C(O)C12CCC2 [Example 339]	66
CN1N(Cc2ccc(OCCN3C4CCC3COC4)c(F)c2F)C(=O)C(C(=O)Nc2ccc(C(F)(F)F)cc2-c2cc(C(F)(F)F)ncn2)=C(O)C12CCC2 [Example 340]	63
CN1N(Cc2ccc(OCCN3CCOCC3(C)C)c(F)c2F)C(=O)C(C(=O)Nc2ccc(C(F)(F)F)cc2-c2cc(C(F)(F)F)ncn2)=C(O)C12CCC2 [Example 341]	64
CN1N(Cc2ccc(OCCN3CCOC(C)(C)C3)c(F)c2F)C(=O)C(C(=O)Nc2ccc(C(F)(F)F)cc2-c2cc(C(F)(F)F)ncn2)=C(O)C12CCC2 [Example 342]	43
C[C@H]1COC[C@H](C)N1CCOc1ccc(CN2C(=O)C(C(=O)Nc3ccc(C(F)(F)F)cc3-c3cc(C(F)(F)F)ncn3)=C(O)C3(CCC3)N2C)c(F)c1F [Example 343]	68
C[C@@H]1COC[C@H](C)N1CCOc1ccc(CN2C(=O)C(C(=O)Nc3ccc(C(F)(F)F)cc3-c3cc(C(F)(F)F)ncn3)=C(O)C3(CCC3)N2C)c(F)c1F [Example 344]	58
COC(=O)CN(C)CCOc1ccc(CN2C(=O)C(C(=O)Nc3ccc(C(F)(F)F)cc3-c3cc(C(F)(F)F)ncn3)=C(O)C3(CCC3)N2C)c(F)c1F [Example 346]	42
CN(CCO)CCOc1ccc(CN2C(=O)C(C(=O)Nc3ccc(C(F)(F)F)cc3-c3cc(C(F)(F)F)ncn3)=C(O)C3(CCC3)N2C)c(F)c1F [Example 347]	28
COCCN(CCOC)CCOc1ccc(CN2C(=O)C(C(=O)Nc3ccc(C(F)(F)F)cc3-c3cc(C(F)(F)F)ncn3)=C(O)C3(CCC3)N2C)c(F)c1F [Example 348]	31
COCC(C)(C)N(C)CCOc1ccc(CN2C(=O)C(C(=O)Nc3ccc(C(F)(F)F)cc3-c3cc(C(F)(F)F)ncn3)=C(O)C3(CCC3)N2C)c(F)c1F [Example 349]	55
COC(C)(C)CN(C)CCOc1ccc(CN2C(=O)C(C(=O)Nc3ccc(C(F)(F)F)cc3-c3cc(C(F)(F)F)ncn3)=C(O)C3(CCC3)N2C)c(F)c1F [Example 350]	45
CN1N(Cc2ccc(OCCN(CCO)CCO)c(F)c2F)C(=O)C(C(=O)Nc2ccc(C(F)(F)F)cc2-c2cc(C(F)(F)F)ncn2)=C(O)C12CCC2 [Example 351]	22
CN1N(Cc2ccc(OCCn3cncn3)c(F)c2F)C(=O)C(C(=O)Nc2ccc(C(F)(F)F)cc2-c2cc(C(F)(F)F)ncn2)=C(O)C12CCC2 [Example 352]	27
CC(=O)NCCN(C)CCOc1ccc(CN2C(=O)C(C(=O)Nc3ccc(C(F)(F)F)cc3-c3cc(C(F)(F)F)ncn3)=C(O)C3(CCC3)N2C)c(F)c1F [Example 353]	26
CC(=O)N(C)CCN(C)CCOc1ccc(CN2C(=O)C(C(=O)Nc3ccc(C(F)(F)F)cc3-c3cc(C(F)(F)F)ncn3)=C(O)C3(CCC3)N2C)c(F)c1F [Example 354]	31
COC(=O)[C@@H]1CCCN1CCOc1ccc(CN2C(=O)C(C(=O)Nc3ccc(C(F)(F)F)cc3-c3cc(C(F)(F)F)ncn3)=C(O)C3(CCC3)N2C)c(F)c1F [Example 355]	36
COC1(C)CN(CCOc2ccc(CN3C(=O)C(C(=O)Nc4ccc(C(F)(F)F)cc4-c4cc(C(F)(F)F)ncn4)=C(O)C4(CCC4)N3C)c(F)c2F)C1 [Example 356]	58
CSC1CN(CCOc2ccc(CN3C(=O)C(C(=O)Nc4ccc(C(F)(F)F)cc4-c4cc(C(F)(F)F)ncn4)=C(O)C4(CCC4)N3C)c(F)c2F)C1 [Example 357]	45
CN1N(Cc2ccc(OCCN3CCC(N4CCOCC4)CC3)c(F)c2F)C(=O)C(C(=O)Nc2ccc(C(F)(F)F)cc2-c2cc(C(F)(F)F)ncn2)=C(O)C12CCC2 [Example 358]	34
CN1CCN(CCOc2ccc(CN3C(=O)C(C(=O)Nc4ccc(C(F)(F)F)cc4-c4cc(C(F)(F)F)ncn4)=C(O)C4(CCC4)N3C)c(F)c2F)CC1=O [Example 359]	37
CN1N(Cc2ccc(OCCN3CCN(CCO)CC3)c(F)c2F)C(=O)C(C(=O)Nc2ccc(C(F)(F)F)cc2-c2cc(C(F)(F)F)ncn2)=C(O)C12CCC2 [Example 360]	21

Structure (SMILES)	Rate of uptake inhibition (%) (1 µM)
CN1N(Cc2ccc(OCCN3CCN(CCOCCO)CC3)c(F)c2F)C(=O)C(C(=O)Nc2ccc(C(F)(F)F)cc2-c2cc(C(F)(F)F)ncn2)=C(O)C12CCC2 [Example 361]	20
CN1N(Cc2ccc(OCCN3CCN(CCCO)CC3)c(F)c2F)C(=O)C(C(=O)Nc2ccc(C(F)(F)F)cc2-c2cc(C(F)(F)F)ncn2)=C(O)C12CCC2 [Example 362]	17
CN1N(Cc2ccc(OCCN3CCN(S(C)(=O)=O)CC3)c(F)c2F)C(=O)C(C(=O)Nc2ccc(C(F)(F)F)cc2-c2cc(C(F)(F)F)ncn2)=C(O)C12CCC2 [Example 363]	11
CN(C)C(=O)N1CCN(CCOc2ccc(CN3C(=O)C(C(=O)Nc4ccc(C(F)(F)F)cc4-c4cc(C(F)(F)F)ncn4)=C(O)C4(CCC4)N3C)c(F)c2F)CC1 [Example 364]	36
CN(CCOc1ccc(CN2C(=O)C(C(=O)Nc3ccc(C(F)(F)F)cc3-c3cc(C(F)(F)F)ncn3)=C(O)C3(CCCC3)N2C)c(F)c1F)C1CCOCC1 [Example 365]	34
CN(CCOc1ccc(CN2C(=O)C(C(=O)Nc3ccc(C(F)(F)F)cc3-c3cc(C(F)(F)F)ncn3)=C(O)C3(CCCC3)N2C)c(F)c1F)C1CCOC1 (stereo not shown) [Example 366]	38
CN1N(Cc2ccc(OCCN3C4CCC3COC4)c(F)c2F)C(=O)C(C(=O)Nc2ccc(C(F)(F)F)cc2-c2cc(C(F)(F)F)ncn2)=C(O)C12CCCC2 [Example 367]	43
COC(=O)CN(C)CCOc1ccc(CN2C(=O)C(C(=O)Nc3ccc(C(F)(F)F)cc3-c3cc(C(F)(F)F)ncn3)=C(O)C3(CCCC3)N2C)c(F)c1F [Example 368]	26
CN1N(Cc2ccc(OCCN3CC(F)(F)C3)c(F)c2F)C(=O)C(C(=O)Nc2ccc(C(F)(F)F)cc2-c2cc(C(F)(F)F)ncn2)=C(O)C12CCCC2 [Example 369]	43
C[C@@H]1COC[C@H](C)N1CCOc1ccc(CN2C(=O)C(C(=O)Nc3ccc(C(F)(F)F)cc3-c3cc(C(F)(F)F)ncn3)=C(O)C3(CCCC3)N2C)c(F)c1F [Example 370]	41
CN1N(Cc2ccc(OCCN3CCOCC3(C)C)c(F)c2F)C(=O)C(C(=O)Nc2ccc(C(F)(F)F)cc2-c2cc(C(F)(F)F)ncn2)=C(O)C12CCCC2 [Example 371]	38
COCC(C)(C)N(C)CCOc1ccc(CN2C(=O)C(C(=O)Nc3ccc(C(F)(F)F)cc3-c3cc(C(F)(F)F)ncn3)=C(O)C3(CCCC3)N2C)c(F)c1F [Example 372]	38
CN(CCO)CCOc1ccc(CN2C(=O)C(C(=O)Nc3ccc(C(F)(F)F)cc3-c3cc(C(F)(F)F)ncn3)=C(O)C3(CCCC3)N2C)c(F)c1F [Example 373]	27
CN1N(Cc2ccc(OCCN3CCC(N4CCOCC4)CC3)c(F)c2F)C(=O)C(C(=O)Nc2ccc(C(F)(F)F)cc2-c2cc(C(F)(F)F)ncn2)=C(O)C12CCCC2 [Example 374]	42
COC[C@@H]1CCCN1CCOc1ccc(CN2C(=O)C(C(=O)Nc3ccc(C(F)(F)F)cc3-c3cc(C(F)(F)F)ncn3)=C(O)C3(CCCC3)N2C)c(F)c1F [Example 375]	31
CN1N(Cc2ccc(OCCN3CCN(CCO)CC3)c(F)c2F)C(=O)C(C(=O)Nc2ccc(C(F)(F)F)cc2-c2cc(C(F)(F)F)ncn2)=C(O)C12CCCC2 [Example 376]	33
COCCN1CCN(CCOc2ccc(CN3C(=O)C(C(=O)Nc4ccc(C(F)(F)F)cc4-c4cc(C(F)(F)F)ncn4)=C(O)C4(CCCC4)N3C)c(F)c2F)CC1 [Example 377]	29
CN1N(Cc2ccc(OCCN3CCN(CCOCCO)CC3)c(F)c2F)C(=O)C(C(=O)Nc2ccc(C(F)(F)F)cc2-c2cc(C(F)(F)F)ncn2)=C(O)C12CCCC2 [Example 378]	35
CN1N(Cc2ccc(OCCN3CCN(S(C)(=O)=O)CC3)c(F)c2F)C(=O)C(C(=O)Nc2ccc(C(F)(F)F)cc2-c2cc(C(F)(F)F)ncn2)=C(O)C12CCCC2 [Example 379]	37
CN1N(Cc2ccc(OCCN3[C@@H]4COC[C@H]3C4)c(F)c2F)C(=O)C(C(=O)Nc2ccc(C(F)(F)F)cc2-c2cc(C(F)(F)F)ncn2)=C(O)C12CCCC2 [Example 380]	43
CN1N(Cc2ccc(OCCN[C@@H](CC(=O)O)C(=O)O)c(F)c2F)C(=O)C(C(=O)Nc2ccc(C(F)(F)F)cc2-c2cc(C(F)(F)F)ncn2)=C(O)C12CCCC2 [Example 381, (2S)-2-[2-[2,3-Difluoro-4-[[10-hydroxy-6-methyl-8-oxo-9-[[4-trifluoromethyl-2-[6-(trifluoromethyl)pyrimidin-4-yl]phenyl]carbamoyl]-6,7-diazaspiro[4.5]dec-9-en-7-yl]methyl]phenoxy]ethylamino]butanedioate]	28
